Results on two molecules are retold here after patent publication CN113698460A, “一种大肠杆菌lipid A结合基元PCK及其制备方法与应用” (priority 2021, dated 2021).

No end group written: not given here.

This data set has as its system 北京鸭红细胞. Put plainly: Hemolysis of red blood cells. The format is cell-based, Peking duck.

For “SYPMYARRFLFKWGLLR-NH2 [PCK, Ser Tyr Pro Met Tyr Ala Arg Arg Phe Leu Phe Lys Trp Gly Leu Leu Arg-NH2]”, the “Toxicity to Peking duck red blood cells” value (PCK 0.5-128 μg/mL) is reported as “没有毒性”.

`COc1ccc2cc3[n+](cc2c1OC)CCc1cc2c(cc1-3)OCO2` [小檗碱]: where the note is “berberine alone, concentration not given”, the Hemolysis rate stood at 1%.
